Reference: patent US9388405B2, “Method for identifying a subpopulation of mammalian cells with distinctive ribosome translation profiles” (priority 2009, dated 2016)

What was measured:
Assay type in all cases: cell-based, human
[1] = test system: MCF7 CMV-fLuc subclones #44 and #48; experiment: PKC activator dose response, cap-dependent translation (fLuc); details: single-Toxin, 6 hr
Protocol: Following 6 hr exposure to the Single-Toxin TPA assay, cells were lysed and fLuc protein activity measured using a standard microplate reader assay. The raw values were averaged and expressed as the ratio of treated to untreated samples (Fold Induction).
Dashed lines represent translational response levels produced by a 100 nM TPA Single-Toxin assay. The Bryostatin 1 concentrations (top panel) encompassed the TPA concentrations used in FIG. 27A. […] The Bryostatin 2 dose response curve (bottom panel) employed higher drug concentrations (the maximal tested dose was 5× the largest TPA and Bryostatin 1 amounts). At the highest tested dose (2.5 uM), Bryostatin 2 produced fLuc activity consistent with the level observed with 100 nM TPA.
In addition to measuring cap-dependent and cap-independent translational effects, Class-specific translational activity and toxin-defined actions, the previously described materials and methods allow for a variety of applications designed to detect and characterize agents and processes that regulate ribosome activity. In this example, comparative dose response assays were used to detect cap-dependent and cap-independent translational regulation in MCF7 cells. The basis for this application was the observation that distinct translational responses are produced by compounds at different doses. When an assortment of compounds act on a common molecular target, they can be grouped into a genus of related drugs. By comparing individual species of a compound genus over a defined dose range, differences in translational regulation can be defined. Furthermore, these translational differences can often be linked to biological differences.
In this example (FIG. 27), the three PKC activators produced similar dose response trends in cap-dependent assays. […] However, macrolide lactones produced translational increases that were generally 60-70% of the TPA translational response (FIG. 27B). In fact, a 25 fold increase in Bryostatin 2 concentration (2.5 uM) was needed to produce a translational magnitude similar to the 100 nM TPA assay (FIG. 27B).

[2] = test system: MCF7 mTRdm-fLuc subclones #8, #27, and #45; experiment: PKC activator dose response, cap-independent TR translation (fLuc); details: single-Toxin, 6 hr
Protocol: Following 6 hr culture with a TPA single-Toxin assay, cells were lysed and fLuc protein activity measured using a standard microplate reader assay. The plate reader values were averaged and expressed as the ratio of treated to untreated samples (Fold Induction).
As with FIG. 27B, dashed lines represent translational response levels achieved by the 100 nM TPA assay in each cell line. […] A further difference between the cap-dependent and cap-independent assays was the observation that increased Bryostatin 2 concentrations (5× the maximal TPA dose) never produced fLUC activity equivalent to the 100 nM TPA assay. Thus, the Toxin Assay procedure can detect a statistically significant difference in cap-dependent and cap-independent translation in compounds that activate PKC activity.
In the cap-independent assays, a similar dose response trend was observed over a 1 nM to 250 nM range with a translational peak at a 100 nM dose. However, the magnitude of the Bryostatin increases were generally 30% of 100 nM TPA response.

HCT116 mTRdm-fLUC cells = experiment: 5-Assay / 15-Assay toxin assays, fLUC plate reader (Fold Induction)
Protocol: The 5-Assay and 15-Assay procedures were applied to cellular pools using either of two growth procedures (e.g. a Cell Count or Confluence growth assay). For a Cell Count assay, cells from the P1 pool dish were counted and passed into a white clear bottom 96-well microtiter tray at a density of 25,000 cells per well; the leftover cells were passed into a passage 2 (P2) dish. Cells in the microtiter plate were allowed to grow for about 40 hr to achieve a ˜75% cell confluence prior to incubation with a toxic agent. Then cells in a microtiter plate were treated with complete growth medium containing either no toxin or an optimal toxin, defined as a single or multiple toxin assay that produces a maximal translational response (taken from Table 3) and incubated for 6 hours at 37° C. Each treatment was performed on triplicate wells.
After toxin incubation, cells were examined by phase contrast microscopy for signs of detachment. If more than ˜10% of cells were detached, the 96-well plates were centrifuged at 1200 rpm for 3 min to pellet the detached cells. The media were removed and replaced with 50 μL of Cell Lysis Buffer (25 mM Tris-phosphate (pH7.8), 10% glycerol, 1% Triton X-100, 1 mg/ml BSA, 2 mM EGTA and 2 mM DTT). Cells were incubated with the Cell Lysis Buffer for 10 min at RT and cell lysis was verified using a phase contrast microscope. To ensure complete lysis, the lysates were vigorously agitated using the multichannel pipettor. Any air bubbles formed as a result of agitation were manually removed with a syringe needle. Luminescence was measured using the FLUOstar Optima (BMG Labtech) microplate reader. To develop luminescence, wells were injected with 5 μL of the D-luciferin solution dissolved in Reaction Buffer (25 mM Glycylglycine (pH 7.8), 15 mM MgSO4, 4 mM EDTA, 15 mM Potassium phosphate, 1 mM DTT, 1 mM Coenzyme A, 6.7 mM ATP and 3.35 mM D-luciferin). After 4 sec with shaking, luminescence values were measured using the lens filter at gains of 2500-4000.
Light values were converted to Fold Induction using the ratio of values produced by treated and untreated cells. The maximal TR-specific translational response produced by the 5-Toxin or 15-Toxin assay was used to assign an optimal toxin assay (maximal translational response) which was subsequently used to screen subclones derived from this pool and to assign a Class designation. […]
In one test, the 5-Assay procedure (Table 3) was applied to HCT116 mTRdm-fLUC 12-16 subclone #30 cells (FIG. 1A). […] Samples were then processed with Lysis buffer and read in a plate reader. […]
Triplicate samples of HCT116 mTRdm-fLUC 12-16 Sub#30 cells were cultured with the two-Toxin assays using a standard plate reader protocol (FIG. 1C). […]

[3] = test system: HEK293 CMV-fLuc subclone #3; experiment: Updated 15-Assay / 21-Assay, cap-dependent translational responses; details: Updated 15-Assay two-Toxin with 100 nM TPA, cap-dependent
Text: (§1) The dashed line represents the level of translational response in the untreated samples.
Following 6 hr exposure to the compounds, cells were lysed and fLuc protein activity measured using a standard microplate reader assay. The triplicate plate reader values were averaged and expressed as the ratio of treated to untreated samples (Fold Induction). The dashed line represents the level of translational response in the untreated samples.
(§2) The 21-Assay procedure employs the same standard toxins as the Updated 15-Assay protocol. The extra 6 assays involve an unknown or an uncharacterized compound and its pairwise combinations with the five toxins: Unknown, Unknown+TPA, Unknown+Colchcine, Unknown+Bortezomib (Velcade), Unknown+Low dose Calon, and Unknown+Hycamtin (Topotecan).
Application of single-Toxin and two-Toxin assays in the Updated 15-Assay protocol was used to define cap-dependent translational responses in the HEK293 CMV-fLuc #3 subclone (FIG. 30A).
The combinatorial process described in this example provides a system for testing translational regulation by unknown compounds. In this example, a 21-Assay setup is described that employs the single and pairwise combinatorial application of 5 toxins, as in a standard 15-Toxin assay, and the addition of a sixth substance. Inclusion of the sixth substance requires the expansion of the assay group to a total of 21 single- and two-Toxin assays. For this example, a control substance (taxol) was selected from the original 15-Assay system.

[4] = test system: MCF7 mTRdm-fLuc subclone #27; experiment: Topoisomerase 1 inhibitor single-Toxin and two-Toxin (100 nM TPA) dose response, cap-independent
Protocol: FIG. 28C illustrates the use of single-Toxin Assays to measure the effects of Topoisomerase 1 inhibitors on cap-independent translation in MCF7 cells. Triplicate samples of the MCF7 mTRdm-fLuc subclone #27 were treated with varying concentrations (10 nM to 10 uM range) of the Topoisomerase 1 inhibitors; camptothecin, rubitecan, irinotecan and topotecan. The plate reader values were averaged and expressed as the ratio of treated to untreated samples (Fold Induction). The dashed line represents the level of translational response in untreated controls.
FIG. 28D illustrates the use of a two-Toxin Combinatorial Assay on the MCF7 mTRdm-fLuc subclone #27 treated with 100 nM TPA plus varying doses (10 nM to 10 uM range) of the Topoisomerase 1 inhibitors. The plate reader values were averaged and expressed as the ratio of treated to untreated samples (Fold Induction). The dashed line represents the level of translational response in untreated samples. All four inhibitors acted synergistically with TPA to increase protein activity in the 10 nM two-Toxin assay.
FIG. 28D illustrates the use of a two-Toxin dose response assay using varying dosages of the TopoI inhibitors in combination with the 100 nM TPA translational activator. All four inhibitors acted synergistically with TPA at low doses to increase protein translation. At concentrations higher than 100 nM, camptothecin, rubitecan, and topotecan antagonized the TPA response and reduced the fLUC expression.

[5] = test system: MCF7 CMV-fLuc subclone #65; experiment: Topoisomerase 1 inhibitor single-Toxin and two-Toxin (100 nM TPA) dose response, cap-dependent; details: 10 nM to 10 uM
Protocol: FIG. 28A illustrates a dose response assay of the MCF7 CMV-fLuc subclone #65 treated with varying doses (10 nM to 10 uM range) of the following Topoisomerase 1 inhibitors: camptothecin, topotecan, irinotecan, and rubitecan. Following a 6 hr incubation in a single-Toxin assay, cells were lysed and fLuc protein activity measured using a standard microplate reader assay. The plate reader values were averaged and expressed as the ratio of treated to untreated samples (Fold Induction). The dashed line represents the level of translational response in untreated cell samples.
FIG. 28B illustrates the use of a Combinatorial Assay to examine the effects of Topoisomerase 1 inhibitors on cap-dependent translation. A series of dose response assays were performed on the MCF7 CMV-fLuc subclone #65 using varying doses of the Topoisomerase 1 inhibitors (10 nM to 10 uM range) in a Two-Toxin assay with a constant 100 nM TPA dose. The plate reader values were averaged and expressed as the ratio of treated to untreated samples (Fold Induction). The dashed line represents the level of translational response in untreated samples.
FIG. 28A illustrates a cap-dependent dose response assay of MCF7 cells treated with varying dosages (10 nM to 10 uM range) of the following TopoI inhibitors: camptothecin, topotecan, irinotecan, and rubitecan. […] While the altered irinotecan response might have been predicted based on its metabolic requirements, the lack of topotecan action on cap-dependent translation in the single-Toxin assays was unexpected.
Since similar doses inhibited translation in the single-Toxin assays (FIG. 28A), this effect might have represented a direct effect on translation.

[6] = test system: HEK293 mTRdm-fLuc subclone #13 and HEK293 hTRdm-gLuc subclone #79; experiment: Updated 15-Assay / 21-Assay, TR translational responses (fLuc, gLuc); details: Updated 15-Assay, High Dose 10 uM, single- and two-Toxin
Protocol: as §1
As before, secreted Gaussia Luciferase (gLUC) activity was measured in conditioned media 6 hr after drug application and protein activity expressed as the ratio of treated to untreated samples (Fold Induction). The dashed line represents the translational response in untreated cells.
The dashed line represents the translational response produced by untreated cell samples.
Following a 6 hr culture time, secreted gLuc activity was measured in conditioned media using a standard microplate reader assay and expressed as the ratio of treated to untreated samples (Fold Induction). The dashed line represents the level of translational response in the untreated samples. Given that the gLuc protein is secreted into the media, it escapes the cytoplasmic protein turnover processes acting on the fLUC protein. Therefore, any difference in the apparent TR response is a likely result of variation in reporter protein synthesis, secretion or reduced protein turnover.
as §2, with “(Topotecan). […]” for “(Topotecan).”

CCCCCCCCCCCCCC(=O)O[C@@H]1[C@@H](C)[C@@]2(O)[C@@H](C=C(CO)C[C@]3(O)C(=O)C(C)=C[C@@H]23)[C@@H]2C(C)(C)[C@]12OC(C)=O [TPA, 12-O-tetradecanoylphorbol-13-acetate]
dose giving maximal reporter level (translational peak) [1]: 100 nM | dose giving peak fLuc protein activity [2]: 100 nM | TR-specific toxin response (HCT116 mTRdm-fLUC cells; 5-Assay, 6 hr, HCT116 mTRdm-fLUC 12-16 subclone #38): Maximal TR-specific toxin responses | increase in reporter activity (maximal TR-specific response) (HCT116 mTRdm-fLUC cells; 5-Assay, TPA single-Toxin 100 nM, 6 hr, HCT116 mTRdm-fLUC 12-16 subclone #30): 800-1200%

CC(C)C[C@H](NC(=O)[C@H](Cc1ccccc1)NC(=O)c1cnccn1)B(O)O [Velcade, [(1R)-3-methyl-1-[[(2S)-1-oxo-3-phenyl-2-[(pyrazinylcarbonyl)amino]propyl]amino]butyl] boronic acid]
effect on the TPA response [3]: TPA response was antagonized

CNc1ccc2oc(C[C@H]3O[C@@]4(CC[C@H]3C)O[C@H]([C@H](C)C(=O)c3ccc[nH]3)[C@H](C)C[C@H]4C)nc2c1C(=O)O [calcimycin, Calcimycin]
effect on the TPA response [3]: TPA response was antagonized

CCCC(=O)Nc1ncnc2c1ncn2[C@@H]1O[C@@H]2COP(=O)(O)O[C@H]2[C@H]1OC(=O)CCC [dbcAMP, Dibutyryl-cyclic AMP]
translational response (HCT116 mTRdm-fLUC cells; dbcAMP single-Toxin assay, HCT116 mTRdm-fLUC transformed subclones): minimal translational response

CC[C@@]1(O)C(=O)OCc2c1cc1n(c2=O)Cc2cc3c(CN(C)C)c(O)ccc3nc2-1.Cl [topotecan, (S)-10-[(dimethylamino)methyl]-4-ethyl-4,9-dihydroxy-1H-pyrano[3′,4′:6,7]indolizino[1,2-b]quinoline-3,14(4H,12H)-dione monohydrochloride]
effect on the TPA response [3]: TPA response was antagonized | effect on cap-independent translation ([4]; single-Toxin, 10 nM to 10 uM): exhibited reduced fLUC activity at higher doses (5 uM and 10 uM) | effect on TPA activity ([4]; two-Toxin with 100 nM TPA, 10 nM to 10 uM): antagonized the TPA activity and exhibited reduced fLUC expression | fLUC expression at the highest dose ([4]; two-Toxin with 100 nM TPA, highest dose): basal level expression | effect on cap-dependent translation ([5]; single-Toxin): neither topotecan or irinotecan significantly altered cap-dependent translation | effect on TPA-specific translational response ([5]; two-Toxin with constant 100 nM TPA, cap-dependent): showed only the TPA inhibitory effect at high doses (i.e. 5 uM and 10 uM) | effect on translation [6]: inhibitory effect of Topotecan (HD) was evident in all Single- and two-Toxin assays
